This passage reports TGI and GI50 results from PubChem BioAssay (NCI).

Common to all, as to assay: inhibition of tumour cell growth, NCI panel, 48 h
For experiment [1], the system named is HL-60(TB) leukemia.
In experiment [2] the test system is SK-MEL-28 melanoma.
Experiment [3] relates to SK-MEL-2 melanoma.
Experiment [4] has as its system EKVX NSCLC.
In experiment [5] the test system is HOP-62 NSCLC.
Experiment [6] concerns 786-0 renal.
Experiment [7] concerns PC-3 prostate.
Experiment [8] relates to HCT-116 colon.
Experiment [9] has as its system UACC-62 melanoma.
Experiment [10] relates to A498 renal.

Several values for one entry are separate records, joined by “and”; a condition that tells them apart may be missing. Equal values may be shown once.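 Grown in 96-well plates, cells were treated for 48 hours with each compound at five concentrations. Insufficient inhibition: endpoint recorded as highest concentration tested. GI50 is the concentration that inhibits growth by half. At the TGI there is no net growth.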

For `COc1c2c(nc3ccccc13)-c1cc3c(c(=O)n1C2)COC(=O)C3(O)CC(=O)N1CCOCC1` (centres undefined), the TGI in experiment [1] is 17600 nM; in experiment [2] it was over 98200 nM; in experiment [3], 64600 nM; in [4], over 93600 nM; in experiment [5] it was 20700 nM; in experiment [6], 12800 nM. The TGI in experiment [7] is over 100000 nM; in experiment [8], 38500 nM; in [9], 8350 nM; in [10], 46400 nM.

As to `CCCCN(CCCC)c1ccc(C(=N)c2ccc(N(CCCC)CCCC)cc2)cc1`, the GI50 is 479 nM in [1]; 1050 nM in experiment [2]; 387 nM in experiment [3]; 277 nM in experiment [4]; 748 nM in experiment [5]; 847 nM in [6]. Moreover, the GI50 in experiment [7] is 296 nM; in experiment [8], 339 nM; in experiment [9] it was 369 nM; in experiment [10], 1240 nM. Also, the TGI in [1] stood at 1950 nM; in [2], 2410 nM; in [3], 1310 nM; in [4], 1150 nM; in experiment [5] it was 2110 nM; in experiment [6], 2250 nM. The TGI in [7] stood at 1030 nM; in experiment [8], 1310 nM; in experiment [9], 1500 nM; in experiment [10] it was 2560 nM.

As for `CCOc1ccccc1N=Nc1c(C)[nH]n(-c2nc(-c3ccccc3)cs2)c1=O`, the GI50 was over 100000 nM in experiment [1]; over 84900 nM in [2]; 27300 nM in [3]; 32600 nM in [4]; 35100 nM in experiment [5]; 35400 nM in [6]. Besides, the GI50 was 34700 nM in experiment [7], 52300 nM in [8], 35600 nM in experiment [9] and 23500 nM in experiment [10]. For the same molecule, the TGI in [1], in [2], in experiment [3], in experiment [4], in experiment [5] and in experiment [6] was over 100000 nM throughout. Moreover, the TGI in experiment [7], in experiment [8], in [9] and in experiment [10] was over 100000 nM in each case.

Regarding `CS[C@]12C(=O)C[C@@]3(C)[C@@H](CC[C@]3(O)C(=O)CO)[C@@H]1CCC1=CC(=O)CC[C@@]12C`, the TGI in experiment [1], in [2], in experiment [3], in experiment [4], in experiment [5] and in [6] was over 100000 nM in each case. Moreover, the TGI in experiment [7], in experiment [8], in experiment [9] and in [10] was over 100000 nM in each case.

Regarding `COc1ccc(C(=O)c2cc3c(N)c(C(=O)Nc4cccc5ccccc45)sc3nc2C)cc1`, the GI50 is 150 nM in [1]; over 50000 nM in experiment [2]; over 50000 nM in experiment [3]; 294 nM in experiment [4]; 314 nM in experiment [5]; 305 nM in experiment [6]. Moreover, the GI50 is 212 nM in [7], 180 nM in [8], 285 nM in experiment [9] and 119 nM in experiment [10]. Further, the TGI was 503 nM in experiment [1]; over 50000 nM in experiment [2]; over 50000 nM in experiment [3]; over 50000 nM in experiment [4]; over 50000 nM in experiment [5]; over 50000 nM in [6]. Besides, the TGI in experiment [7] was over 50000 nM; in experiment [8], over 18900 nM; in experiment [9] it was over 50000 nM; in experiment [10], 764 nM.

As for `CC1(C)[C@@H](OC(N)=O)[C@H]2O[C@H]2[C@]2(CO)[C@H]3CC[C@]4(C)[C@@H](c5ccc(=O)oc5)[C@@H](Cl)C[C@]4(O)C3=CC[C@@H]12`, the GI50 in experiment [1] was 6.09 nM; in [2], 16 nM; in [3], 8.18 nM; in experiment [4] it was 5.34 nM; in experiment [5], 4.32 nM; in experiment [6], 5.2 nM. For the same molecule, the GI50 in experiment [7] was 8.03 nM; in [8], 7.09 nM; in experiment [9], 8.92 nM; in experiment [10] it was 14.4 nM. The TGI is 14 nM in experiment [1]; 90.2 nM in experiment [2]; 33 nM in experiment [3]; under 13.8 nM in experiment [4]; 8.47 nM in experiment [5]; 13.6 nM in experiment [6]. Moreover, the TGI in [7] was 27.5 nM; in [8] it was 26.2 nM; in experiment [9], 33.2 nM; in experiment [10] it was 74.8 nM.

For `C=C1C(=O)OC2/C=C(/C)C(OC(C)=O)CC(O)/C(C)=C\C(OC(=O)/C(C)=C\C)C12` (centres undefined), the TGI in [1] was 60700 nM; in experiment [2], over 100000 nM; in experiment [3], over 100000 nM; in experiment [4], over 100000 nM; in [5], over 100000 nM; in experiment [6], 35400 nM. For the same molecule, the TGI in experiment [7] was over 100000 nM; in experiment [8], 35600 nM; in experiment [9], over 100000 nM; in [10], over 100000 nM.

In the case of `NC(=S)N/N=C/c1ncccc1N`, the GI50 in experiment [1] was 867 nM; in experiment [2] it was 12600 nM; in [3], 75700 nM; in experiment [4] it was 5130 nM; in experiment [5], 739 nM; in [6], 419 nM. In addition, the figures for the GI50 in experiment [7], in experiment [8] and in [9] were 6500 nM, 1160 nM and 338 nM, respectively. Besides, the TGI in experiment [1] is 6450 nM and > 6690 nM; in experiment [2] it was over 100000 nM; in experiment [3] it was over 100000 nM; in experiment [4] it was over 100000 nM; in [5], 13100 nM and 9780 nM; in experiment [6], over 33600 nM. In addition, the TGI was over 100000 nM in experiment [7]; over 33700 nM in experiment [8]; 7670 nM and > 10000 nM in experiment [9]; over 73100 nM in [10].
